42 molecules from patent US9126952B2, “Morpholinylquinazolines” (Merck Patent GmbH, priority 2010, dated 2015) can be followed below.

Where only a bound is given, the exact number is not on record here.

For this test, the target named is DNA-PK (Homo sapiens (Human), UniProt P78527). As to the kind of experiment: DNA-PK/biochemical assay (FlashPlate kinase assay). Particulars: 5 μM ATP, 90 min, room temperature; read-out: Binding DNA-PK IC50. On the procedure:
[…] To this end, 1.5 μg of the DNA-PK/protein complex and 100 ng of biotinylated substrate, such as, for example, PESQEAFADLWKK biotin-NH2 (“biotin-DNA-PK peptide”), in a total volume of 36.5 μl (34.25 mM HEPES/KOH, 7.85 mM Tris-HCl, 68.5 mM KCl, 5 μM ATP, 6.85 mM MgCl2, 0.5 mM EDTA, 0.14 mM EGTA, 0.69 mM DTT, pH 7.4), were incubated at room temperature for 90 min with 500 ng of DNA from calf thymus, 0.1 μCi of 33P-ATP and 1.8% of DMSO per well with or without the test compound. The reaction was stopped using 50 μl/well of 200 mM EDTA. After incubation for a further 30 min at room temperature, the liquid was removed. Each well was washed three times with 100 μl of 0.9% sodium chloride solution. A non-specific reaction (blank value) was determined using 10 μM of a proprietary kinase inhibitor. The radioactivity measurement was carried out by means of a TopCount. IC50 values were calculated in RS1. • Literature: Kashishian et al. (2003) Molecular Cancer Therapeutics 1257.

Regarding `O=C(C1CCCN(c2ncnc3cc(N4CCOCC4)ccc23)C1)N1CCCCC1` (stereo not drawn) [compound 20, [1-(7-Morpholin-4-yl-quinazoline-4-yl)-piperidin-3-yl]-piperidin-1-yl-methanone], the IC50 – broadly, the point on the concentration scale where inhibition reaches its midpoint – is 0.1 to 0.5 µM.

As for `c1nc(N2CCCC(CN3CCOCC3)C2)c2ccc(N3CCOCC3)cc2n1` (stereo not drawn) [compound 21, 7-Morpholin-4-yl-4-(3-morpholin-4-ylmethylpiperidin-1-yl)quinazoline], the IC50 is 0.5 to 1 µM.

Consider `COc1cccc(C2CCCN(c3ncnc4cc(N5CCOCC5)ccc34)C2)c1` (stereo not drawn) [compound 22, 4-[3-(3-Methoxy-phenyl)piperidin-1-yl]-7-morpholin-4-yl-quinazoline], for which the IC50 is less than 0.1 µM.

`c1cn(CC2CCCN(c3ncnc4cc(N5CCOCC5)ccc34)C2)cn1` (stereo not drawn) [compound 23]: the IC50 was less than 0.1 µM.

For the molecule `c1ccc2[nH]c(C3CCCN(c4ncnc5cc(N6CCOCC6)ccc45)C3)nc2c1` (stereo not drawn) [compound 24, 4-[3-(1H-Benzo-imidazol-2-yl)-piperidin-1-yl]-7-morpholin-4-yl-quinazoline], the IC50 lay within 0.5 to 1 µM.

For the molecule `Clc1nc(N2CCCC(Cn3ccnc3)C2)c2ccc(N3CCOCC3)cc2n1` (stereo not drawn) [compound 25, 2-Chloro-4-(3-imidazol-1-ylmethyl-piperidin-1-yl)-7-morpholin-4-yl-quinazoline], the IC50 was less than 0.1 µM.

For the molecule `c1ccc2oc(C3CCCN(c4ncnc5cc(N6CCOCC6)ccc45)C3)nc2c1` (stereo not drawn) [compound 26, 4-(3-Benzoxazol-2-ylpiperidin-1-yl)-7-morpholin-4-yl-quinazoline], the IC50 is 0.1 to 0.5 µM.

For `Cc1cccc(C2CCCN(c3ncnc4cc(N5CCOCC5)ccc34)C2)c1` (stereo not drawn) [compound 27, 7-Morpholin-4-yl-4-(3-m-tolylpiperidin-1-yl)quinazoline], the IC50 was less than 0.1 µM.

Turning to `FC(F)(F)c1cccc(C2CCCN(c3ncnc4cc(N5CCOCC5)ccc34)C2)c1` (stereo not drawn) [compound 28, 7-Morpholin-4-yl-4-[3-(3-trifluoromethyl-phenyl)piperidin-1-yl]quinazoline], the IC50 lay within 0.1 to 0.5 µM.

As for `Cn1ccnc1CC1CCCN(c2ncnc3cc(N4CCOCC4)ccc23)C1` (stereo not drawn) [compound 29, 4-[3-(1-Methyl-1H-imidazol-2-ylmethyl)-piperidin-1-yl]-7-morpholin-4-yl-quinazoline], the half-inhibitory concentration (IC50) was less than 0.1 µM.

Regarding `Clc1nc(N2CCCC(Cn3cccc3)C2)c2ccc(N3CCOCC3)cc2n1` (stereo not drawn) [compound 30, 2-Chloro-7-morpholin-4-yl-4-(3-pyrrol-1-ylmethyl-piperidin-1-yl)-quinazoline], the 50% inhibitory concentration (IC50) was less than 0.1 µM.

As to `c1cnc(CC2CCCN(c3ncnc4cc(N5CCOCC5)ccc34)C2)nc1` (stereo not drawn) [compound 31], the half-maximal inhibitory concentration (IC50) was less than 0.1 µM.

In the case of `c1csc(CC2CCCN(c3ncnc4cc(N5CCOCC5)ccc34)C2)n1` (stereo not drawn) [compound 32], the IC50 is less than 0.1 µM.

For the molecule `c1csc(CC2CCCN(c3ncnc4cc(N5CCOCC5)ccc34)C2)c1` (stereo not drawn) [compound 33], the half-inhibitory concentration (IC50) was less than 0.1 µM.

On to `Cc1nc(N2CCCCC2)c2ccc(N3CCOCC3)cc2n1` [compound 34, 2-Methyl-7-morpholin-4-yl-4-piperidin-1-yl-quinazoline], for which the IC50 is more than 1 µM.

Regarding `c1ccc2sc(CC3CCCN(c4ncnc5cc(N6CCOCC6)ccc45)C3)cc2c1` (stereo not drawn) [compound 35, 4-(3-Benzo[b]-thiophen-2-ylmethyl-piperidin-1-yl)-7-morpholin-4-yl-quinazoline], the IC50 was 0.1 to 0.5 µM.

In the case of `Clc1nc(N2CCCC(Cc3nccs3)C2)c2ccc(N3CCOCC3)cc2n1` (stereo not drawn) [compound 36, 2-Chloro-7-morpholin-4-yl-4-(3-thiazol-2-ylmethyl-piperidin-1-yl)-quinazoline], the half-maximal inhibitory concentration (IC50) is less than 0.1 µM.

With `C1=C(c2cccs2)CN(c2ncnc3cc(N4CCOCC4)ccc23)CC1` [compound 37, 7-Morpholin-4-yl-4-(5-thiophen-2-yl-3,6-dihydro-2H-pyridin-1-yl)quinazoline], the IC50 lay in the range of 0.1 to 0.5 µM.

Turning to `COc1cccc(C(O)C2CCCN(c3ncnc4cc(N5CCOCC5)ccc34)C2)c1` (stereo not drawn) [compound 38, (3-Methoxyphenyl)-[1-(7-morpholin-4-yl-quinazolin-4-yl)-piperidin-3-yl]-methanol], the IC50 was less than 0.1 µM.

With `COc1nc(N2CCCCC2)c2ccc(N3CCOCC3)cc2n1` [compound 39, 2-Methoxy-7-morpholin-4-yl-4-piperidin-1-yl-quinazoline], the half-maximal inhibitory concentration (IC50) was more than 1 µM.

For `c1csc(C2CCCN(c3ncnc4cc(N5CCOCC5)ccc34)C2)c1` (stereo not drawn) [compound 40, 7-Morpholin-4-yl-4-(3-thiophen-2-yl-piperidin-1-yl)-quinazoline], the IC50 is less than 0.1 µM.

In the case of `COc1cccc(CC2CCCN(c3ncnc4cc(N5CCOCC5)ccc34)C2)c1` (stereo not drawn) [compound 41, 4-[3-(3-Methoxy-benzyl)piperidin-1-yl]-7-morpholin-4-yl-quinazoline], the half-maximal inhibitory concentration (IC50) is less than 0.1 µM.

Turning to `COc1ccc(CC2CCCN(c3ncnc4cc(N5CCOCC5)ccc34)C2)cc1OC` (stereo not drawn) [compound 42, 4[3-(3,4-Dimethoxy-benzyl)piperidin-1-yl]-7-morpholin-4-yl-quinazoline], the IC50 fell in the range of 0.1 to 0.5 µM.

Take `c1ccc2sc(CC3CCCN(c4ncnc5cc(N6CCOCC6)ccc45)C3)nc2c1` (stereo not drawn) [compound 43, 4-(3-Benzothiazol-2-ylmethylpiperidin-1-yl)-7-morpholin-4-yl-quinazoline]: the concentration for half-maximal inhibition (IC50) was in the range of 0.1 to 0.5 µM.

`c1nc(N2CCCC(Cc3ccsc3)C2)c2ccc(N3CCOCC3)cc2n1` (stereo not drawn) [compound 44]: the concentration for half-maximal inhibition (IC50) is less than 0.1 µM.

Turning to `OC(c1ccsc1)C1CCCN(c2ncnc3cc(N4CCOCC4)ccc23)C1` (stereo not drawn) [compound 45, [1-(7-Morpholin-4-yl-quinazolin-4-yl)-piperidin-3-yl]-thiophen-3-yl-methanol], the 50% inhibitory concentration (IC50) is less than 0.1 µM.

Take `OC(c1nccs1)C1CCCN(c2ncnc3cc(N4CCOCC4)ccc23)C1` (stereo not drawn) [compound 46, [1-(7-Morpholin-4-yl-quinazolin-4-yl)-piperidin-3-yl]-thiazol-2-yl-methanol]: the 50% inhibitory concentration (IC50) was less than 0.1 µM.

For `Cc1cnc(C(O)C2CCCN(c3ncnc4cc(N5CCOCC5)ccc34)C2)s1` (stereo not drawn) [compound 47, (5-Methyl-thiazol-2-yl)-[1-(7-morpholin-4-ylquinazolin-4-yl)-piperidin-3-yl]-methanol], the IC50 was less than 0.1 µM.

On to `Cc1nc(C(O)C2CCCN(c3ncnc4cc(N5CCOCC5)ccc34)C2)sc1C` (stereo not drawn) [compound 48, (4,5-Dimethyl-thiazol-2-yl)-[1-(7-morpholin-4-yl-quinazolin-4-yl)-piperidin-3-yl]-methanol], for which the concentration for half-maximal inhibition (IC50) is less than 0.1 µM.

Turning to `Cc1csc(C(O)C2CCCN(c3ncnc4cc(N5CCOCC5)ccc34)C2)n1` (stereo not drawn) [compound 49, (4-Methylthiazol-2-yl)-[1-(7-morpholin-4-ylquinazolin-4-yl)-piperidin-3-yl]-methanol], the half-maximal inhibitory concentration (IC50) is less than 0.1 µM.

Consider `O=C(c1nccs1)C1CCCN(c2ncnc3cc(N4CCOCC4)ccc23)C1` (stereo not drawn) [compound 50, [1-(7-Morpholin-4-yl-quinazolin-4-yl)-piperidin-3-yl]-thiazol-2-yl-methanone], for which the IC50 is less than 0.1 µM.

As to `Cc1cnc(CC2CCCN(c3ncnc4cc(N5CCOCC5)ccc34)C2)s1` (stereo not drawn) [compound 51, 4-[3-(5-Methyl-thiazol-2-ylmethyl)-piperidin-1-yl]-7-morpholin-4-yl-quinazoline], the half-inhibitory concentration (IC50) is less than 0.1 µM.

On to `Cc1nc(CC2CCCN(c3ncnc4cc(N5CCOCC5)ccc34)C2)sc1C` (stereo not drawn) [compound 52, 4-[3-(4,5-Dimethyl-thiazol-2-ylmethyl)-piperidin-1-yl]-7-morpholin-4-yl-quinazoline], for which the IC50 is less than 0.1 µM.

Regarding `OC(c1ncco1)C1CCCN(c2ncnc3cc(N4CCOCC4)ccc23)C1` (stereo not drawn) [compound 53, [1-(7-Morpholin-4-yl quinazolin-4-yl)-piperidin-3-yl]-oxazol-2-yl-methanol], the concentration for half-maximal inhibition (IC50) was less than 0.1 µM.

Turning to `Oc1nc(N2CCCCC2)c2ccc(N3CCOCC3)cc2n1` [compound 54, 7-Morpholin-4-yl-4-piperidin-1-yl-quinazolin-2-ol], the 50% inhibitory concentration (IC50) is more than 1 µM.

As to `Cn1ccnc1C(O)C1CCCN(c2ncnc3cc(N4CCOCC4)ccc23)C1` (stereo not drawn) [compound 55, (1-Methyl-1H-imidazol-2-yl)-[1-(7-morpholin-4-yl-quinazolin-4-yl)-piperidin-3-yl]-methanol], the IC50 fell in the range of 0.1 to 0.5 µM.

Turning to `Cc1csc(CC2CCCN(c3ncnc4cc(N5CCOCC5)ccc34)C2)n1` (stereo not drawn) [compound 56, 4-[3-(4-Methyl-thiazol-2-ylmethyl)-piperidin-1-yl]-7-morpholin-4-yl-quinazoline], the half-maximal inhibitory concentration (IC50) is less than 0.1 µM.

Turning to `Nc1nc(N2CCCCC2)c2ccc(N3CCOCC3)cc2n1` [compound 57, 7-Morpholin-4-yl-4-piperidin-1-yl-quinazolin-2-ylamine], the IC50 fell in the range of 0.5 to 1 µM.

Take `N#Cc1nc(N2CCCCC2)c2ccc(N3CCOCC3)cc2n1` [compound 58, 7-Morpholin-4-yl-4-piperidin-1-yl-quinazoline-2-carbonitrile]: the IC50 was in the range of 0.1 to 0.5 µM.

As to `O=C(NC1CCCN(c2nc(Cl)nc3cc(N4CCOCC4)ccc23)C1)c1cncs1` (stereo not drawn) [compound 59], the concentration for half-maximal inhibition (IC50) is less than 0.1 µM.

As to `O=C(NC1CCCN(c2nc(Cl)nc3cc(N4CCOCC4)ccc23)C1)c1nccs1` (stereo not drawn) [compound 60, N-[1-(2-Chloro-7-morpholin-4-yl-quinazolin-4-yl)-piperidin-3-yl]-thiazole-2-carboxamide], the IC50 was less than 0.1 µM.

As for `O=C(NC1CCCN(c2nc(Cl)nc3cc(N4CCOCC4)ccc23)C1)c1cscn1` (stereo not drawn) [compound 61], the IC50 was in the range of 0.1 to 0.5 µM.
